IC50 data for one compound are collected here from patent publication US9643953B2, “Substituted benzylpyrazoles” (Bayer Intellectual Property GmbH, priority 2011, dated 2017).

The structures appear in SMILES notation.

For test [1], the target named is T1, catalytic domain of human Bub1 (amino acids 704-1085) (Homo sapiens, UniProt O43683).
T1 construct: catalytic domain of human Bub1 (amino acids 704-1085); His6 (N); made in house; host or cells: Hi5 insect cells
The experiment in a line: Bub1 kinase assay (TR-FRET). The format is biochemical. To be noted: Biological Assay 1: Bub1 kinase assay median IC50, TR-FRET, ATP 10 μM, peptide substrate 1 μM, 60 min at 22° C. How it is done:
To this end, 100-fold concentrated compound solutions (in DMSO) were previously prepared by serial dilution (1:3.4) of 2 mM stocks in a clear low volume 384-well source microtiter plate (Greiner Bio-One, Frickenhausen, Germany), from which 50 nl of compounds were transferred into a black low volume test microtiter plate from the same supplier. […] The resulting mixture (5 μl final volume) was incubated at 22° C. during 60 min., and the reaction was stopped by the addition of 5 μl of an aqueous EDTA-solution (50 mM EDTA, in 100 mM HEPES pH 7.5 and 0.2% (w/v) bovine serum albumin) which also contained the TR-FRET detection reagents (0.2 μM streptavidin-XL665 [Cisbio Bioassays, Codolet, France] and 1 nM anti-phosho-Serine antibody [Merck Millipore, cat. #35-001] and 0.4 nM LANCE EU-W1024 labeled anti-mouse IgG antibody [Perkin-Elmer, product no. AD0077, alternatively a Terbium-cryptate-labeled anti-mouse IgG antibody from Cisbio Bioassays can be used]). The stopped reaction mixture was further incubated 1 h at 22° C. in order to allow the formation of complexes between peptides and detection reagents. Subsequently, the amount of product was evaluated by measurement of the resonance energy transfer from the Eu-chelate-antibody complex recognizing the Phosphoserine residue to the streptavidin-XL665 bound to the biotin moiety of the peptide. […] IC50 values were calculated by fitting the normalized inhibition data to a 4-parameter logistic equation (Minimum, Maximum, IC50, Hill; Y=Max+(Min−Max)/(1+(X/IC50)Hill)).

Another test deals with HeLa cell line. Put plainly: Proliferation assay (HeLa cell line).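 Further: crystal violet staining of cell number, absorbance read at 595 nm, compounds tested at 0.001–10 µM, zero-point plate taken as 0% and untreated cells as 100%, four-parameter fit.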 The settings on record: Homo sapiens, HeLa, 96 h, read-out: Biological Assay 2: Proliferation assay (HeLa cell line) median IC50.
A further test has as its system H460 cell line. Put plainly: Proliferation assay (H460 cell line). To be noted: Homo sapiens, NCI-H460, 96 h, read-out: Biological Assay 2: Proliferation assay (H460 cell line) median IC50.
A further test has as its system DU145 cell line. Put plainly: Proliferation assay (DU145 cell line). To be noted: Homo sapiens, DU-145, 96 h, read-out: Biological Assay 2: Proliferation assay (DU145 cell line) median IC50.
In a further test the test system is Caco2 cell line. Put plainly: Proliferation assay (Caco2 cell line). To be noted: Homo sapiens, Caco-2, 96 h, read-out: Biological Assay 2: Proliferation assay (Caco2 cell line) median IC50.
The next test concerns B16F10 cell line. Put plainly: Proliferation assay (B16F10 cell line). To be noted: Mus musculus, B16-F10, 96 h, read-out: Biological Assay 2: Proliferation assay (B16F10 cell line) median IC50.
The test system of another test is HeLa-MaTu-ADR cell line. The experiment in a line: Proliferation assay (HeLa-MaTu-ADR cell line). The settings on record: 96 h, read-out: Biological Assay 2: Proliferation assay (HeLa-MaTu-ADR cell line) median IC50.

T1 sequence (O43683 704-1085): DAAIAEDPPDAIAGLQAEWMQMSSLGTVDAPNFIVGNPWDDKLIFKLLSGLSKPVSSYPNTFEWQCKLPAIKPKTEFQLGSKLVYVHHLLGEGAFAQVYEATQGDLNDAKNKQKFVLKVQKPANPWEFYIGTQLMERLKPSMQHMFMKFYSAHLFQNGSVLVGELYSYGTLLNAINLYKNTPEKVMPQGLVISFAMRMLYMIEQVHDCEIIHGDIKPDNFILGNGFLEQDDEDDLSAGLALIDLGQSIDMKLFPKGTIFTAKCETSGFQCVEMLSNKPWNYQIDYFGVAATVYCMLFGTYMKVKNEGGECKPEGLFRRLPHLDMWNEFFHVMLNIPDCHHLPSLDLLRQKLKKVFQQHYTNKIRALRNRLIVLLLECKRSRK
Description for B16F10 cell line: (§1) Cultivated tumor cells (cells were ordered from ATCC, except HeLa-MaTu and HeLa-MaTu-ADR, which were ordered from EPO-GmbH, Berlin) were plated at a density of 1000 to 5000 cells/well, depending on the growth rate of the respective cell line, in a 96-well multititer plate in 200 μL of their respective growth medium supplemented 10% fetal calf serum. After 24 hours, the cells of one plate (zero-point plate) were stained with crystal violet (see below), while the medium of the other plates was replaced by fresh culture medium (200 μl), to which the test substances were added in various concentrations (0 μM, as well as in the range of 0.001-10 μM; the final concentration of the solvent dimethyl sulfoxide was 0.5%). The cells were incubated for 4 days in the presence of test substances. Cell proliferation was determined by staining the cells with crystal violet: the cells were fixed by adding 20 μl/measuring point of an 11% glutaric aldehyde solution for 15 minutes at room temperature. After three washing cycles of the fixed cells with water, the plates were dried at room temperature. The cells were stained by adding 100 μl/measuring point of a 0.1% crystal violet solution (pH 3.0). After three washing cycles of the stained cells with water, the plates were dried at room temperature. The dye was dissolved by adding 100 μl/measuring point of a 10% acetic acid solution. Absorption was determined by photometry at a wavelength of 595 nm. The change of cell number, in percent, was calculated by normalization of the measured values to the absorption values of the zero-point plate (=0%) and the absorption of the untreated (0 μm) cells (=100%). The IC50 values were determined by means of a 4 parameter fit.
Description for Caco2 cell line: as §1
Description for DU145 cell line: as §1
Description for H460 cell line: as §1
Description for HeLa cell line: as §1
Description for HeLa-MaTu-ADR cell line: as §1

`CCOc1cc(F)c(Cn2nc(-c3ncc(OCCCS(C)(=O)=O)c(Nc4ccncc4)n3)c(C)c2C2CC2)c(F)c1` [Example 2-3-10, 2-[5-cyclopropyl-1-(4-ethoxy-2,6-difluorobenzyl)-4-methyl-1H-pyrazol-3-yl]-5-[3-(methylsulfonyl)propoxy]-N-(pyridin-4-yl)pyrimidin-4-amine]: the IC50 in test [1] turned out to be 9.49 nM; in the test with HeLa cell line it was 1130 nM; in the test on H460 cell line, 1550 nM; in the test with DU145 cell line, 1610 nM; with Caco2 cell line, 1410 nM; in the test with B16F10 cell line, 1180 nM. In addition, the IC50 in the test on HeLa-MaTu-ADR cell line stood at 755 nM.
